# Reference: article PMC5896373 (Molecular Pharmacology, 2018)
# Tests used:
# P2X7R mutant Insert G99 = molecular target: T1, P2X7R mutant Insert G99 (Homo sapiens, UniProt Q99572, I21V/INS99D/M24R/N16P/N25R/Q22R/R20V/S23N/T19I/Y26L); set-up: method as in Allsopp et al., 2017; conditions: aspartic acid inserted between G99 and N100; ref Allsopp et al., 2017; cited from earlier work
# T1 construct: expressed in transfected cells; host or cells: Xenopus laevis oocytes (cRNA injection)
# T1 sequence (Q99572 with tags, fused parts or gaps N16P/T19I/R20V/I21V/Q22R/S23N/M24R/N25R/Y26L/INS99D): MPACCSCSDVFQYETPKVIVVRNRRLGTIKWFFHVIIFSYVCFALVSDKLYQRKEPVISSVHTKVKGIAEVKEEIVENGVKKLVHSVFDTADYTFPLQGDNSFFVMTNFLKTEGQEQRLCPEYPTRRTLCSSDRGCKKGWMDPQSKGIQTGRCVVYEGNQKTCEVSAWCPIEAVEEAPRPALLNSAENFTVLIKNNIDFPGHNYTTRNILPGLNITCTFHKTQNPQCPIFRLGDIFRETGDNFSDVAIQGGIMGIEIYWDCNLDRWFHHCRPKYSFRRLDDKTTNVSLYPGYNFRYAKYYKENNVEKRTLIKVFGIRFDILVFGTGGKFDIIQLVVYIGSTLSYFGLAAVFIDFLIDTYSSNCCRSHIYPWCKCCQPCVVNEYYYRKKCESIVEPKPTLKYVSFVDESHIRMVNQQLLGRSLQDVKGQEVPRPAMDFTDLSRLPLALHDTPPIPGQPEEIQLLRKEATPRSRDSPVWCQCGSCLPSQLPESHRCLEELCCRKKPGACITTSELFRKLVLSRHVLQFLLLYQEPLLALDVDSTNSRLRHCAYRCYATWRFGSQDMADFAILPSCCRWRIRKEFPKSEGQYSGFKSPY
# P2X7R point mutant K110Y = molecular target: T2, P2X7R point mutant K110Y (Homo sapiens, UniProt Q99572, I21V/K110Y/M24R/N16P/N25R/Q22R/R20V/S23N/T19I/Y26L); set-up: method as in Allsopp et al., 2017; conditions: ref Allsopp et al., 2017; cited from earlier work
# T2 construct: expressed in transfected cells; host or cells: Xenopus laevis oocytes (cRNA injection)
# T2 sequence (Q99572 1-595 N16P/T19I/R20V/I21V/Q22R/S23N/M24R/N25R/Y26L/K110Y): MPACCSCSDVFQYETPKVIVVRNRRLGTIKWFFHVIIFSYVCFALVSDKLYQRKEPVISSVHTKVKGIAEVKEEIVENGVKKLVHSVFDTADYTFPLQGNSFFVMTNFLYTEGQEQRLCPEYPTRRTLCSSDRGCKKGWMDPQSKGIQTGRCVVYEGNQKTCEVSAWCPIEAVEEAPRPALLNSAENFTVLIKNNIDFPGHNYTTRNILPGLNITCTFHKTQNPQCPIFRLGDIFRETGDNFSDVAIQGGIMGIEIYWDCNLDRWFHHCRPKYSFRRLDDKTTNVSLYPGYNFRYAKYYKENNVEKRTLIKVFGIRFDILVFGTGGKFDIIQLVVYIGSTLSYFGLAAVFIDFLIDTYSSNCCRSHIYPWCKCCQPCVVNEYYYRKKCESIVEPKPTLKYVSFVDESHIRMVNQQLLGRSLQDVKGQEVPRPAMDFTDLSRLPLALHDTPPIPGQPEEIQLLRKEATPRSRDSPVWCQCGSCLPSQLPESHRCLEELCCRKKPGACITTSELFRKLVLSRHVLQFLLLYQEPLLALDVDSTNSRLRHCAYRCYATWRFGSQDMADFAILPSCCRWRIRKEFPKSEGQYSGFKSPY
# [1] = molecular target: T3, chimeric P2X7/1 receptor 210–217 (Homo sapiens, UniProt Q99572, G211E/I214K/I21V/INS213AAHM/L212V/M24R/N16P/N25R/P210E/Q22R/R20V/S23N/T19I/T217L/Y26L); set-up: method as in Allsopp et al., 2017; conditions: chimera 210–217; ref Allsopp et al., 2017; cited from earlier work
# T3 construct: expressed in transfected cells; host or cells: Xenopus laevis oocytes (cRNA injection)
# T3 sequence (Q99572 with tags, fused parts or gaps N16P/T19I/R20V/I21V/Q22R/S23N/M24R/N25R/Y26L/P210E/G211E/L212V/INS213AAHM/I214K/T217L): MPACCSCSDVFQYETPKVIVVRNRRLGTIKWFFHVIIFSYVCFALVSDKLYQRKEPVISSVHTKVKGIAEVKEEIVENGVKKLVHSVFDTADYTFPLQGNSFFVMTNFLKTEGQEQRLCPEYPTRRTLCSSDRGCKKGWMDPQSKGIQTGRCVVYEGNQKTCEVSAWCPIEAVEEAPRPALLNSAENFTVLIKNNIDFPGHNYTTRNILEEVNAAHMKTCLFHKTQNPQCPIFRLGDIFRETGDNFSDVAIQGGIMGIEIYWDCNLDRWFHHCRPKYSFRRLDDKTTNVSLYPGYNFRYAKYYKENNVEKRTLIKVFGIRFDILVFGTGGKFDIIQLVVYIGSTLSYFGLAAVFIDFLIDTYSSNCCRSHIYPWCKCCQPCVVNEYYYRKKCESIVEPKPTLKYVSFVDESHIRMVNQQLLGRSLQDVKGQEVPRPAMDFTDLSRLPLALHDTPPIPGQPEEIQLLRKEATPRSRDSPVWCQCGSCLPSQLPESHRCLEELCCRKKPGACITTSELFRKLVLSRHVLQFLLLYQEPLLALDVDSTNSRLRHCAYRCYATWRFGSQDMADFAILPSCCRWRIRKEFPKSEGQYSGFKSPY
# [2] = molecular target: T3, chimeric P2X7/1 receptor 210–217; assay: Two-electrode voltage clamp of ATP-evoked currents in Xenopus oocytes; type: cell-based
# hP2X1R = molecular target: T4, hP2X1R (Homo sapiens, UniProt P51575); assay: as above; type: cell-based
# T4 construct: expressed in transfected cells; host or cells: Xenopus laevis oocytes (cRNA injection)
# T4 sequence (P51575 whole entry): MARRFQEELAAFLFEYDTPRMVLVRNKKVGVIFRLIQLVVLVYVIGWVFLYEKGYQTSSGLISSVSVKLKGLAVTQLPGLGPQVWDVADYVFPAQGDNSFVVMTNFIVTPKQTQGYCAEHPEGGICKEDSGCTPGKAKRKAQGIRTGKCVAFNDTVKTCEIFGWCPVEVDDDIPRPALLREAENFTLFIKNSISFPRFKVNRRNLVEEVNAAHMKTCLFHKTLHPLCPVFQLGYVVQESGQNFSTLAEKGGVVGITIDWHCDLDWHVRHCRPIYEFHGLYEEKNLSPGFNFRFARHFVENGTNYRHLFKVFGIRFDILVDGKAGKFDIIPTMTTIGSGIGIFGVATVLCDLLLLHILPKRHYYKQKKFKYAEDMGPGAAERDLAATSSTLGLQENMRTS
# [3] = system: chimeric P2X7/1 receptor 295–310; assay: cell-based; type: cell-based, human; conditions: chimera 295–310
# Experimental: Additional point mutants were made using the QuikChange mutagenesis kit (Stratagene California, La Jolla, CA). The production of the correct mutations and absence of coding errors was determined by DNA sequencing (Automated ABI Sequencing Service, University of Leicester, UK). cRNA was generated for the mutants and 50 nl (50 ng) was injected into manually defoliculated stage V Xenopus laevis oocytes using an Inject+Matic microinjector (J.A. Gabay, Inject+Matic, Geneva, Switzerland). Injected oocytes were stored at 16°C in ND96 buffer [in millimolar concentrations, NaCl 96, KCl 2, CaCl2 1.8, MgCl2 1, sodium pyruvate 5, and HEPES 5 (pH 7.6) supplemented with 50 μg/ml gentamycin and 50 μg/ml tetracycline]. Three to seven days postinjection two-electrode voltage clamp recordings were made from oocytes bathed in divalent-free ND96 buffer (in millimolar concentrations, NaCl 96, KCl 2, sodium pyruvate 5, HEPES 5, and 0.1 flufenamic acid, pH 7.6). Oocytes were voltage clamped at a holding potential of −60 mV with a GeneClamp500B amplifier (Molecular Devices).
# Inhibition by the antagonists was expressed as the percentage of the peak current amplitude of an EC90 concentration of ATP recorded before the application of antagonist (ATP gave reproducible responses to ATP in the absence of antagonist). Inhibition curves were fitted with the Hill equation (variable slope) using GraphPad Prism 6 (GraphPad Software, San Diego, CA). […] Individual concentration-response curves were generated for individual experiments, and statistical analysis was carried out on the data generated. […] Data are shown as mean ± S.E.M. In all cases n ≥ 3 for all data points.
# [4] = system: P2X7R left flipper point mutant D280A; assay: Two-electrode voltage clamp of ATP-evoked currents in Xenopus oocytes; type: cell-based, human
# Experimental: (§1) The production of the correct mutations and absence of coding errors was determined by DNA sequencing (Automated ABI Sequencing Service, University of Leicester, UK). cRNA was generated for the mutants and 50 nl (50 ng) was injected into manually defoliculated stage V Xenopus laevis oocytes using an Inject+Matic microinjector (J.A. Gabay, Inject+Matic, Geneva, Switzerland). Injected oocytes were stored at 16°C in ND96 buffer [in millimolar concentrations, NaCl 96, KCl 2, CaCl2 1.8, MgCl2 1, sodium pyruvate 5, and HEPES 5 (pH 7.6) supplemented with 50 μg/ml gentamycin and 50 μg/ml tetracycline]. Three to seven days postinjection two-electrode voltage clamp recordings were made from oocytes bathed in divalent-free ND96 buffer (in millimolar concentrations, NaCl 96, KCl 2, sodium pyruvate 5, HEPES 5, and 0.1 flufenamic acid, pH 7.6). Oocytes were voltage clamped at a holding potential of −60 mV with a GeneClamp500B amplifier (Molecular Devices).
# (§2) Inhibition by the antagonists was expressed as the percentage of the peak current amplitude of an EC90 concentration of ATP recorded before the application of antagonist (ATP gave reproducible responses to ATP in the absence of antagonist). Inhibition curves were fitted with the Hill equation (variable slope) using GraphPad Prism 6 (GraphPad Software, San Diego, CA). […]
# [5] = system: P2X7R left flipper point mutant T282A; assay: as above; type: cell-based, human
# Experimental: as §1, §2
Structure (SMILES),effect on antagonist binding (P2X7R mutant Insert G99),effect on antagonist sensitivity (P2X7R point mutant K110Y),effect on antagonist sensitivity [1],IC50 [2] [nM],inhibition of ATP (EC90)-evoked currents (hP2X1R),effect on antagonist sensitivity relative to P2X7-2Nβ ([2]; chimera 210–217),fold decrease in antagonist sensitivity relative to P2X7-2Nβ [3] [fold],effect on antagonist sensitivity relative to P2X7-2Nβ [4],effect on antagonist sensitivity relative to P2X7-2Nβ [5]
"Cl.Cl.O=C(CC12CC3CC(CC(C3)C1)C2)Nc1cccc2nc(NCCNCCO)ccc12 [AZ10606120, N-[2-[[2-[(2-hydroxyethyl)amino]ethyl]amino]-5-quinolinyl]-2-tricyclo[3.3.1.13,7]dec-1-ylacetamide dihydrochloride]",little effect,increased,no change,,,,,,
"Cl.Clc1cccc(-c2nnnn2Cc2cccnc2)c1Cl.O [A438079, 3-(5-(2,3-dichlorophenyl)-1H-tetrazol-1-yl)methyl pyridine hydrochloride hydrate]",,,,251,ineffective,,,,
"COc1ccc(CC(=O)NC(N=C(NC#N)Nc2cccc3ncccc23)C(C)(C)C)cc1OC (stereo not shown) [A740003, N-[1-[[(cyanoamino)(5-quinolinylamino)methylene]amino]-2,2-dimethylpropyl]-3,4-dimethoxybenzeneacetamide]",,,,79.4,,unaffected,~5,no effect,no effect
